Source: PubChem BioAssay AID330 (DTP/NCI, 2004)
Several values for one entry are separate records, joined by “and”; a condition that tells them apart may be missing. Equal values may be shown once. Toxic doses and inconclusive results are not listed.

Test system: P388 leukemia ip, CD2F1 mice, survival T/C
Test: NCI In Vivo Anticancer Drug Screen. Data for tumor model P388 Leukemia (intraperitoneal) in CD2F1 (CDF1) mice
Settings: endpoint: median survival time, higher = longer survival
Summary of the method: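 Mice carrying the transplanted tumor received test compound or vehicle. Survival was recorded in each group, and the value is the treated-group measurement divided by that of the vehicle-treated control group.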

[1] = dose: 50.0 mg/kg/injection, schedule: Q01DX009 (ip), vehicle: saline
[2] = dose: 100.0 mg/kg/injection, schedule: Q01DX009 (ip), vehicle: saline
[3] = dose: 200.0 mg/kg/injection, schedule: Q01DX009 (ip), vehicle: saline
[4] = dose: 12.5 mg/kg/injection, schedule: Q01DX009 (ip), vehicle: Klucel (hydroxypropylcellulose) (HPC)
[5] = dose: 25.0 mg/kg/injection, schedule: Q01DX009 (ip), vehicle: Klucel (hydroxypropylcellulose) (HPC)
[6] = dose: 50.0 mg/kg/injection, schedule: Q01DX009 (ip), vehicle: Klucel (hydroxypropylcellulose) (HPC)
[7] = dose: 60.0 mg/kg/injection, schedule: Q01DX005 (ip), vehicle: saline with Tween-80
[8] = dose: 120.0 mg/kg/injection, schedule: Q01DX005 (ip), vehicle: saline with Tween-80
[9] = dose: 240.0 mg/kg/injection, schedule: Q01DX005 (ip), vehicle: saline with Tween-80
[10] = dose: 100.0 mg/kg/injection, schedule: Q01DX009 (ip), vehicle: Klucel (hydroxypropylcellulose) (HPC)
[11] = dose: 200.0 mg/kg/injection, schedule: Q01DX009 (ip), vehicle: Klucel (hydroxypropylcellulose) (HPC)
[12] = dose: 100.0 mg/kg/injection, schedule: Q01DX009 (ip), vehicle: saline with Tween-80
[13] = dose: 100.0 mg/kg/injection, schedule: Q04DX003 (ip), vehicle: saline with Tween-80
[14] = dose: 200.0 mg/kg/injection, schedule: Q04DX003 (ip), vehicle: saline with Tween-80

BrC(Br)=C(Br)Br
T/C [1]: 100 % of control
T/C [2]: 104 % of control
T/C [3]: 104 % of control

CCCCCCCCCCCCCC[N+](C)([O-])CCCCCC[N+](C)([O-])CCCCCCCCCCCCCC (stereo not drawn)
T/C [4]: 94 % of control
T/C [5]: 100 % of control
T/C [6]: 92 % of control and 93 % of control

COc1ccc2nc(C)cc(N/N=C/c3ccc(N(CCCl)CCCl)cc3)c2c1
T/C (dose: 0.78 mg/kg/injection, schedule: Q01DX009 (ip), vehicle: Klucel (hydroxypropylcellulose) (HPC)): 105 % of control
T/C (dose: 1.56 mg/kg/injection, schedule: Q01DX009 (ip), vehicle: Klucel (hydroxypropylcellulose) (HPC)): 103 % of control
T/C (dose: 3.12 mg/kg/injection, schedule: Q01DX009 (ip), vehicle: Klucel (hydroxypropylcellulose) (HPC)): 90 % of control and 98 % of control
T/C (dose: 6.25 mg/kg/injection, schedule: Q01DX009 (ip), vehicle: Klucel (hydroxypropylcellulose) (HPC)): 90 % of control
T/C [5]: 90 % of control

O=C(CCCCC(=O)N/N=C/c1ccco1)N/N=C/c1ccco1
T/C [7]: 99 % of control
T/C [8]: 94 % of control
T/C [9]: 91 % of control

Cc1cc(=O)[nH]c2c(C)cccc12
T/C (dose: 100.0 mg/kg/injection, schedule: Q04DX003 (ip), vehicle: Klucel (hydroxypropylcellulose) (HPC)): 96 % of control
T/C (dose: 200.0 mg/kg/injection, schedule: Q04DX003 (ip), vehicle: Klucel (hydroxypropylcellulose) (HPC)): 98 % of control
T/C (dose: 400.0 mg/kg/injection, schedule: Q04DX003 (ip), vehicle: Klucel (hydroxypropylcellulose) (HPC)): 99 % of control

O=C(CC[N+](=O)[O-])OCC1OC(OC(=O)CC[N+](=O)[O-])C(O)C(O)C1O (stereo not drawn)
T/C (dose: 12.5 mg/kg/injection, schedule: Q01DX005 (ip), vehicle: water): 98 % of control
T/C (dose: 25.0 mg/kg/injection, schedule: Q01DX001 (ip), vehicle: saline + alcohol): 102 % of control
T/C (dose: 25.0 mg/kg/injection, schedule: Q01DX005 (ip), vehicle: water): 104 % of control
T/C (dose: 50.0 mg/kg/injection, schedule: Q01DX001 (ip), vehicle: saline + alcohol): 96 % of control
T/C (dose: 50.0 mg/kg/injection, schedule: Q01DX005 (ip), vehicle: water): 97 % of control
T/C (dose: 100.0 mg/kg/injection, schedule: Q01DX001 (ip), vehicle: saline + alcohol): 105 % of control
T/C (dose: 100.0 mg/kg/injection, schedule: Q01DX005 (ip), vehicle: water): 95 % of control
T/C (dose: 200.0 mg/kg/injection, schedule: Q01DX005 (ip), vehicle: water): 100 % of control

OC(CO/N=C1/c2ccccc2CCC1Cc1ccccc1)CN1CCOCC1 (stereo not drawn)
T/C [7]: 108 % of control
T/C [8]: 116 % of control
T/C [9]: 114 % of control

CCCN1C=C(C(=O)OCC)C(N)=C(C#N)/C1=C\C=C(/C#N)C(=O)OCC
T/C (dose: 6.25 mg/kg/injection, schedule: Q01DX001 (ip), vehicle: Klucel (hydroxypropylcellulose) (HPC)): 89 % of control
T/C (dose: 12.5 mg/kg/injection, schedule: Q01DX001 (ip), vehicle: Klucel (hydroxypropylcellulose) (HPC)): 87 % of control
T/C (dose: 25.0 mg/kg/injection, schedule: Q01DX001 (ip), vehicle: Klucel (hydroxypropylcellulose) (HPC)): 86 % of control
T/C (dose: 50.0 mg/kg/injection, schedule: Q01DX001 (ip), vehicle: Klucel (hydroxypropylcellulose) (HPC)): 88 % of control
T/C (dose: 100.0 mg/kg/injection, schedule: Q01DX001 (ip), vehicle: Klucel (hydroxypropylcellulose) (HPC)): 90 % of control

CC1=NC(=O)C(N=O)C(=O)N1 (stereo not drawn)
T/C (dose: 100.0 mg/kg/injection, schedule: Q04DX002 (ip), vehicle: saline with Tween-80): 99 % of control
T/C (dose: 200.0 mg/kg/injection, schedule: Q04DX002 (ip), vehicle: saline with Tween-80): 97 % of control

O=C(O)c1cc(S(=O)(=O)F)c(Cl)cc1Cl
T/C [7]: 119 % of control
T/C [8]: 104 % of control
T/C [9]: 104 % of control

C/C=C/C(=O)OCC1CCN(C)C1 (stereo not drawn)
T/C [4]: 95 % of control
T/C [5]: 94 % of control
T/C [6]: 96 % of control
T/C [10]: 94 % of control
T/C [11]: 89 % of control

CCOC(C)(OCC)N(C)C (tested in a mixture with another compound)
T/C (dose: 35.5 mg/kg/injection, schedule: Q01DX005 (ip), vehicle: saline with Tween-80): 101 % of control
T/C (dose: 71.0 mg/kg/injection, schedule: Q01DX005 (ip), vehicle: saline with Tween-80): 102 % of control
T/C (dose: 142.0 mg/kg/injection, schedule: Q01DX005 (ip), vehicle: saline with Tween-80): 118 % of control

C=C(C)C(=O)OCCOc1ccc(/C=N/N=c2/sc3ccccc3n2C)cc1OC
T/C [6]: 105 % of control
T/C [10]: 97 % of control
T/C [11]: 108 % of control

Cc1c[n+]([O-])cc(=O)[nH]1
T/C [12]: 100 % of control
T/C (dose: 200.0 mg/kg/injection, schedule: Q01DX009 (ip), vehicle: saline with Tween-80): 100 % of control
T/C (dose: 400.0 mg/kg/injection, schedule: Q01DX009 (ip), vehicle: saline with Tween-80): 100 % of control

Cc1cccc(=O)n1CCC#N
T/C [2]: 95 % of control
T/C [3]: 100 % of control
T/C (dose: 400.0 mg/kg/injection, schedule: Q01DX009 (ip), vehicle: saline): 100 % of control

CCC1CN1P(=O)(N(CC)CC)N1CC1CC (stereo not drawn)
T/C [1]: 109 % of control
T/C [2]: 170 % of control

CCOC(=O)c1cnn(C)c1N
T/C (dose: 66.7 mg/kg/injection, schedule: Q01DX009 (ip), vehicle: saline with Tween-80): 97 % of control
T/C [12]: 110 % of control
T/C (dose: 150.0 mg/kg/injection, schedule: Q01DX009 (ip), vehicle: saline with Tween-80): 105 % of control

CC(C)(C)NC(=O)C(Cl)Cl
T/C (dose: 50.0 mg/kg/injection, schedule: Q01DX001 (ip), vehicle: saline with Tween-80): 100 % of control
T/C (dose: 100.0 mg/kg/injection, schedule: Q01DX001 (ip), vehicle: saline with Tween-80): 100 % of control
T/C (dose: 200.0 mg/kg/injection, schedule: Q01DX001 (ip), vehicle: saline with Tween-80): 95 % of control

Clc1ccc2[nH]c3nc4ccccc4nc3c2c1
T/C (dose: 25.0 mg/kg/injection, schedule: Q01DX009 (ip), vehicle: saline with Tween-80): 100 % of control
T/C (dose: 50.0 mg/kg/injection, schedule: Q01DX009 (ip), vehicle: saline with Tween-80): 105 % of control
T/C [13]: 90 % of control
T/C [14]: 100 % of control
T/C (dose: 400.0 mg/kg/injection, schedule: Q04DX003 (ip), vehicle: saline with Tween-80): 104 % of control

[CH3][Sn]([CH3])([Cl])[c]1cc[c]([Sn]([CH3])([CH3])[Cl])cc1
T/C (dose: 0.19 mg/kg/injection, schedule: Q01DX005 (ip), vehicle: suspension in saline): 122 % of control
T/C (dose: 0.39 mg/kg/injection, schedule: Q01DX005 (ip), vehicle: suspension in saline): 115 % of control
T/C (dose: 0.79 mg/kg/injection, schedule: Q01DX005 (ip), vehicle: saline): 160 % of control
T/C (dose: 3.12 mg/kg/injection, schedule: Q01DX005 (ip), vehicle: suspension in saline): 154 % of control

N#[N+]c1ccc2c(S(=O)(=O)Oc3ccc(C(=O)c4ccccc4)c(OS(=O)(=O)c4cccc5c([O-])c([N+]#N)ccc45)c3)cccc2c1[O-]
T/C (dose: 12.5 mg/kg/injection, schedule: Q01DX005 (ip), vehicle: saline with Tween-80): 110 % of control
T/C (dose: 25.0 mg/kg/injection, schedule: Q01DX005 (ip), vehicle: saline with Tween-80): 107 % of control
T/C (dose: 50.0 mg/kg/injection, schedule: Q01DX005 (ip), vehicle: saline with Tween-80): 105 % of control and 107 % of control

CCCCCN(CCCCC)CCCNc1c2c(nc3ccc(Cl)cc13)CCCC2
T/C (dose: 12.5 mg/kg/injection, schedule: Q01DX005 (ip), vehicle: saline): 95 % of control
T/C (dose: 25.0 mg/kg/injection, schedule: Q01DX005 (ip), vehicle: saline): 104 % of control
T/C (dose: 50.0 mg/kg/injection, schedule: Q01DX005 (ip), vehicle: saline): 104 % of control and 107 % of control

O=[N+]([O-])c1ccc(N/N=C(\C(=N/Nc2ccc([N+](=O)[O-])cc2[N+](=O)[O-])c2ccccc2)c2ccccc2)c([N+](=O)[O-])c1
T/C (dose: 50.0 mg/kg/injection, schedule: Q04DX003 (ip), vehicle: saline with Tween-80): 103 % of control
T/C [13]: 91 % of control
T/C [14]: 91 % of control

Fc1ccc(F)c(C(Nc2nncs2)Nc2nncs2)c1
T/C (dose: 30.0 mg/kg/injection, schedule: Q01DX005 (ip), vehicle: saline with Tween-80): 110 % of control
T/C [7]: 108 % of control and 119 % of control
